This note sets out measurements from PMC12396291, “DNA-encoded library screening uncovers potent DNMT2 inhibitors targeting a cryptic allosteric binding site” (iScience, 2025).

The term CC50 denotes the concentration that lowers cell viability or growth by half. One may read the IC50 as the point on the concentration scale where inhibition reaches its midpoint. By Kd is commonly meant the free concentration of one partner at which half of the binding sites on the other are occupied at equilibrium, for simple one-to-one binding.

One data set addresses T1, DNMT2-eIF4E interaction (Homo sapiens, UniProt O14717).
T1 construct: Recombinant human DNMT2 (full-length); host or cells: E. coli (DNMT2)
In words: Pull-down competition assay. The format is binding. The note with it: 100 μM sinefungin, 100 μM 16 or 10 μM tRNA^Asp.

The target of a further data set is T2, DNMT2-NonO interaction (Homo sapiens, UniProt O14717).
T2 construct: Recombinant human DNMT2 (full-length); host or cells: E. coli (DNMT2)
T2 sequence (O14717 1-391): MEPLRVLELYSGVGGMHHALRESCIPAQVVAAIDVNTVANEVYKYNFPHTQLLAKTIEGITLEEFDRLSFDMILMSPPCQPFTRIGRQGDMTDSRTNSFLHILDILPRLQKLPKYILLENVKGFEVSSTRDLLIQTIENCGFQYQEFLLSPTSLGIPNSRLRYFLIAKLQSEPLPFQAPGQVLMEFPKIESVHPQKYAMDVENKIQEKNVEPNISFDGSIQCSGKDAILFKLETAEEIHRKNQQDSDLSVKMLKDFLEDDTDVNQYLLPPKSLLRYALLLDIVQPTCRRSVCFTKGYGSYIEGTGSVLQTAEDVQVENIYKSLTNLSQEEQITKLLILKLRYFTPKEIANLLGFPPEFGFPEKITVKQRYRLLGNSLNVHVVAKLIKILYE
T2 sequence (Q15233 1-471 partner): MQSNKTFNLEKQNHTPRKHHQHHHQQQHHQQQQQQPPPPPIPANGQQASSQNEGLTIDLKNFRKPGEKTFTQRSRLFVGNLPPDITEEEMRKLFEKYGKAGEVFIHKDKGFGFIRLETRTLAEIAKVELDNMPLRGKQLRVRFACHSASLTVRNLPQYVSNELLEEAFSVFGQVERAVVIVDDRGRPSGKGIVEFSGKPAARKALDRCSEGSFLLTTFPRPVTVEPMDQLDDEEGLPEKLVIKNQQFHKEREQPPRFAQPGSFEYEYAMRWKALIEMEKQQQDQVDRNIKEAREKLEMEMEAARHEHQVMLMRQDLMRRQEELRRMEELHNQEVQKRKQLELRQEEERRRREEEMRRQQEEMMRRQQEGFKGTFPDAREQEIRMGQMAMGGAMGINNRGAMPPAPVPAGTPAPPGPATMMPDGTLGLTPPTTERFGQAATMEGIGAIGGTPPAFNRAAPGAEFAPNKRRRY
The data set can be described thus: Pull-down competition assay. The format is binding. The note with it: 100 μM SFG, 100 μM 16 or 10 μM tRNA^Asp.

Data set [1] is described as follows: Solubility remark from ITC titration. It counts as physicochemical. To be noted: ITC buffer, remark in words. How it is done: (§1) The DNMT2 protein was purified via size exclusion chromatography eluting in isothermal titration calorimetry (ITC) buffer (50 mM sodium phosphate pH 8.0, 300 mM NaCl, 1 mM EDTA, 2 mM β-mercaptoethanol, 0.1% polysorbate-20) and directly used for measurements.[3] All compounds were dissolved in DMSO to a concentration of 5 mM and were then diluted in ITC buffer to a final concentration of 500 μM. DNMT2 was diluted to a final concentration of 50 μM with 10% DMSO to match the ligand stocks' DMSO concentration. For the ITC measurements, a MicroCal PEAQ-ITC Automated workstation (Malvern Panalytical) with a 200 μL Hastelloy cell and an injection syringe volume of 40 μL was used. All experiments were performed in triplicates at 25 °C unless otherwise noted. For each measurement, 19 compound injections (2 μL each) with an injection speed of 0.5 μL/s were added to the reaction cell containing DNMT2. The spacing time between sequential injections was 300 s, and the stirring speed was set to 750 rpm with a reference power of 42 μW. As control experiments, ligands were titrated into ITC buffer. Data analysis and fitting were carried out using the MicroCal PEAQ-ITC Analysis Software 1.21 and plotted in GraphPad Prism 8.0.1.

The next data set concerns MOLM-13 cells. The data set can be described thus: Cell viability assay, doxorubicin co-treatment. It counts as cell-based. The note with it: Homo sapiens; MOLM-13, doxorubicin 48 h; read-out: CC50 (only doxorubicin). How it is done:
Cell viability assays were conducted with MOLM-13 cells, Huh-7, MDA-MB-231, HEK293, and HCT MTase mutant cell lines (WT, knock-down DNMT2, and knock-down NSUN2) to investigate the DNMT2 inhibiting compounds’ cellular effect. Cells were cultured according to standard protocols: MOLM-13 (RPMI, 10% FBS, 1x Penicillin/Streptomycin, 37 °C, 5% CO2), Huh-7/MDA-MB-231/HEK293 (DMEM, 10% FBS, 1x Penicillin/Streptomycin, 37 °C, 5% CO2) and HCT (McCoys’s 5A Medium, 10% FBS, L-Glutamine, 1x Penicillin/Streptomycin, 37 °C, 5% CO2). Cell viability was assessed using Promega Cell Titer Glo assay kit (MOLM-13, Huh-7, MDA-MB-231, HEK293) or Lonza ViaLight Plus Cell Proliferation and Cytotoxicity BioAssay Kit (HCT cell lines). Briefly, 1000 cells were seeded in white Greiner half-area 96-well plates and incubated for 48 h with inhibitors/ligands from DMSO stocks (final: 0.1% DMSO) under standard cultivation conditions. Then, the cell titer reagent was added to each well according to the manufacturer’s protocols, and luminescence was measured using a Tecan Spark 10M plate reader (MOLM-13, Huh-7, MDA-MB-231, HEK293) or Molecular Devices FlexStation (HCT cell lines).

In data set [2] the target is T3, DNMT2 (Homo sapiens, UniProt O14717).
T3 construct: Recombinant human DNMT2 (full-length); His-tag; made in house; host or cells: E. coli
T3 sequence (O14717 1-391): T2 sequence (O14717 1-391)
The data set can be described thus: ^3H-based methyltransferase enzyme activity assay (^3H-SAM incorporation into tRNA^Asp). The format is biochemical.
Experimental: Enzymatic DNMT2 inhibition assays were carried out in 100 mM Tris-HCl, pH 8.0, 100 mM NH4OAc, 0.1 mM EDTA, 10 mM MgCl2, and 10 mM DTT as described previously.[3]^,[4] First, the tRNA^Asp substrate was heated to 75 °C for 5 min and cooled down to room temperature (RT) before it was added to the reaction mixture to a final concentration of 5 μM. The reaction mixture contained 250 nM DNMT2 and the ligand compounds at variable concentrations (5% DMSO). Enzymatic reactions were started by the addition of 0.9 μM SAM as a mixture of ^3H-SAM (Hartmann Analytics) resp. cold SAM (NEB) to a final activity of 0.025 μCi μL^−1. Enzyme assays were carried out for 30 min at 37 °C. As a negative control served the reaction mixture without DNMT2 and as a positive control the reaction mixture without test compound. After 30 min, aliquots of 8 μL were taken from the reaction mixture and spotted on Whatman glass microfiber filters (GF/C, 25 mm). The RNA was precipitated on the filters with 5% ice-cold TCA for 15 min. […] Scintillation was measured with a scintillation counter (TriCarb Liquid Scintillation Analyzer 4810 TR; measurement time of 1 min). For IC50-value determination, compounds were analyzed at a minimum of six different concentrations in triplicates. IC50-values were calculated, evaluated, and plotted in GraphPad Prism 8.0.1.

The target of data set [3] is T3, DNMT2. In words: MST displacement assay with fluorescent FTAD probe. The format is binding. Also on record: Fnorm (MST screening): unit not given here. How it is done:
(§2) Screening for ligand binding and evaluation of dose-response affinity profiles was performed via microscale thermophoresis (MST) as described previously.[42] The measurements were conducted with a Nanotemper Technologies Monolith NT.115 device. All samples were measured in Monolith standard capillaries at 25 °C. The acquisition mode was set to “Nano-Blue” with an excitation power of 30% and a medium MST power, while the system was controlled using the software MO.Control (version 1.6.1) and for evaluation MO.Affinity Analysis (version 2.3) was used. The samples contained 2 μM DNMT2, 100 nM FTAD (5-FAM-triazolyl-adenosyl-Dab) probe, and 1.3% DMSO in MST buffer (50 mM HEPES, 150 mM NaCl, 1 mM dithiothreitol (DTT), 0.1% PEG-8000, 0.05% polysorbate-20, pH 7.4).[42] All compounds were employed at a final concentration of 100 μM for the initial ligand screening.

Data set [4] addresses T3, DNMT2. The data set can be described thus: Isothermal titration calorimetry (ITC), direct titration. The format is binding. To be noted: direct titration at 25 °C; n.b. = no enthalpy signal observable. How it is done:
as §1
In general terms: In ITC the heat of successive injections is recorded.

Data set [5] concerns the target T3, DNMT2. In words: Affinity selection-mass spectrometry (AS-MS). The format is binding. The note with it: 5 μM DNMT2, label-free. How it is done: Orthogonal KD-value determination for compound 3 was conducted by an affinity selection-mass spectrometry (AS-MS) assay according to Prudent et al.[43] and Simon et al.[67] Compound 3 was dissolved in DMSO (20 mM) and a dilution series in Tris buffer (25 mM Tris, 100 mM NaCl, pH 7.5) was prepared to give final ligand concentrations of 100 μM, 50 μM, 25 μM, 12.5 μM, 6.25 μM, 3.12 μM, 1.56 μM, and 0 μM. DNMT2 was diluted in Tris buffer (130 μM) and added to the dilution series to give a final concentration of 5 μM DNMT2. Zeba Spin Desalting columns 7K MWCO were used for the affinity-based separation. These columns were centrifuged at 2000g for 1 min to remove the storage buffer. 20 μL of the prepared samples were loaded to the columns, and the protein-ligand complex was eluted by centrifugation at 2000g for 2 min. The centrifuged solutions were diluted with 10 μL ACN and analyzed by LC/MS with an Agilent 1100 Series HPLC system. The data evaluation and subsequent binding affinity determination were performed with MestReNova (version 14.0.1) and GraphPad Prism 8.0.1.

A further data set concerns the target T4, DNMT2Δ47 (Homo sapiens, UniProt O14717, DEL191-237).
T4 construct: His-tag; made in house; host or cells: E. coli (host printed only for the crystallization preparation)
T4 sequence (O14717 with tags, fused parts or gaps DEL191-237): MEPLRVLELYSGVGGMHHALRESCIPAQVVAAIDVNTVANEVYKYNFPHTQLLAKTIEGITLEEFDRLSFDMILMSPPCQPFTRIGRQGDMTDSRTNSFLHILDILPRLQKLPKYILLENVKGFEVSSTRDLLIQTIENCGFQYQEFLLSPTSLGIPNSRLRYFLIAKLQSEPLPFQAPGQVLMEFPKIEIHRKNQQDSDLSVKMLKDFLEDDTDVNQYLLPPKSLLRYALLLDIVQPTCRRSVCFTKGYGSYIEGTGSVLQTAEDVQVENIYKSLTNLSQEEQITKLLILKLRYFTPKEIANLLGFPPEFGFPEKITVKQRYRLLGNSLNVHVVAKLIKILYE
The data set can be described thus: MST FTAD assay with deletion mutant. It counts as binding. To be noted: DNMT2Δ47 2 μM, FTAD probe; read-out: affinity (MST KD) against DNMT2Δ47. How it is done:
as §2

Data set [6] can be described thus: Parallel artificial membrane permeation assay (PAMPA). It counts as in vitro ADME. To be noted: 7 h incubation, duplicates. How it is done:
To determine the passive permeability of selected DNMT2 ligands, a parallel artificial membrane permeation assay (PAMPA) was performed as described previously.[68] The experiment was performed in duplicates with Sigma-Aldrich MAIPNTR10 donor plates with 5 μL of an artificial membrane (1% w/v L-α-phosphatidylcholine in n-dodecane) per well. After incubation for 7 h, the acceptor solutions were evaluated by LC/MS (HP Agilent 1100 Series). The peak areas in the UV chromatogram (λ = 210 nm) were used to calculate the areas under the curve (AUCs).

The next data set addresses T5, DNMT2 in MOLM-13 cells (Homo sapiens, UniProt O14717).
T5 construct: engages DNMT2 in the MOLM-13 cellular environment, we performed cellular thermal shift assays (CETSA); endogenous in cells; host or cells: MOLM-13
T5 sequence (O14717 1-391): T2 sequence (O14717 1-391)
In words: Cellular thermal shift assay (CETSA). The format is cell-based. The note with it: MOLM-13, 50 μM, 16 h.

Data set [7] in a line: ATP-quantifying cell viability assay, 48 h. It counts as cell-based. The note with it: human, MOLM-13, HCT, Huh-7, MDA-MB-231 and HEK293 cells, all cell lines.

Values joined by “and” are separate entries in the source; they are usually repeats but may differ in a detail not shown here. Equal entries are not always repeated. “Also recorded” adds a separate entry of the source.

T1 sequence (P06730 whole entry partner, one chain of several): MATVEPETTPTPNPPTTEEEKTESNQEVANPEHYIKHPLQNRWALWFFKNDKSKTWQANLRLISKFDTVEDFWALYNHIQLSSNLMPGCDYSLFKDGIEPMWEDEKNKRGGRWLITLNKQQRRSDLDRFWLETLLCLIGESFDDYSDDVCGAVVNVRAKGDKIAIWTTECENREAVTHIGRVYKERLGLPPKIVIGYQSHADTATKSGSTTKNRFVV
Experimental for DNMT2 in MOLM-13 cells: After incubation for 16 h (37 °C, 5% CO2), the cell suspensions were collected. The cells were washed twice and then counted, followed by the addition of 1 mL PBS. The cell suspension was divided into eight parts, and then heated for 4 min at various temperatures (40, 43, 46, 49, 52, 55, 58 °C) in a PCR thermocycler. The cells were lysed through a freeze-thaw process using liquid nitrogen. The supernatant solutions were used for immunoblotting analysis. […] Proteins were separated by SDS−PAGE on 4–20% Criterion TGX Precast Protein Gels (Bio-Rad) and transferred to Amersham Protean 0.45 μm nitrocellulose membrane (Cytiva) using semi-dry transfer (25 V, 1 A, Towbin buffer). […] Subsequently, the membrane was incubated for 3 h at RT with IRDye 680RD Goat anti-Rabbit (1:1000, LICOR, 926–68071). Protein bands were visualized using a GE Healthcare Typhoon Trio biomolecular scanner, with laser excitation at 637 nm and fluorescence detection at 670 nm. The ImageLab software (Bio-Rad) was used for band quantification.
Experimental for DNMT2-NonO interaction: (§3) For immobilization on streptavidin beads, DNMT2 was biotinylated using the EZ-Link Sulfo-NHS-LC-Biotinylation kit. A 20-fold excess of Sulfo-NHS-LC-Biotin (10 mM in water) was added to DNMT2 and incubated for 2 h on ice. […] The biotinylation level was estimated using a HABA assay included in the kit according to the manufacturer’s protocols.
(§4) For in vitro pull-down assays, biotinylated DNMT2 was immobilized on streptavidin-coated paramagnetic beads (GenScript Streptavidin MagBeads). For this, beads were washed with PBS buffer containing 0.05% Triton X-100, and subsequently, DNMT2 (30 μg per 50 μL beads) was immobilized for 45 min at RT. As a negative control, beads were treated with a protein-free buffered solution. Beads were washed with PBS buffer, and for each sample, 5 μL beads were added to either 1.5 μg of recombinant NonO protein (Active Motif) or 3.0 μg of recombinant eIF4E protein (Cayman). Beads were incubated for 1 h at RT, and subsequently, the supernatant was removed. […] The samples were incubated for 45 min at RT, and the supernatant was treated with 2 μL 5× Laemmli buffer. […] All samples were heated to 95 °C for 10 min and analyzed via SDS-PAGE. […] Protein bands were visualized using a GE Healthcare Typhoon Trio biomolecular scanner, with laser excitation at 488 nm and fluorescence detection at 580 nm.
Experimental for DNMT2-eIF4E interaction: as §3, §4

`Nc1ncnc2c1ncn2[C@@H]1O[C@H](C[C@@H](N)CC[C@H](N)C(=O)O)[C@@H](O)[C@H]1O` [sinefungin]: the “displacement of eIF4E from immobilized DNMT2” value at DNMT2-eIF4E interaction is recorded as “neither NonO nor eIF4E could be displaced”. Further, on DNMT2-NonO interaction, the “displacement of NonO from immobilized DNMT2” value is on record as “NonO could not be displaced”.
For `CNC(=O)[C@@H](Nc1nc(N2CCN(c3c(C)cccc3C)CC2)nc(N(C)c2cccc(C)c2)n1)[C@@H](C)OC(C)(C)C` [Compound 2], in [1], the solubility result was “low solubility”.
Consider `COc1cccc2c1C(=O)c1c(O)c3c(c(O)c1C2=O)C[C@@](O)(C(=O)CO)C[C@@H]3O[C@H]1C[C@H](N)[C@H](O)[C@H](C)O1` [doxorubicin], for which the cytotoxic concentration (CC50) in the data set on MOLM-13 cells amounted to 0.045 ± 0.003 µM.
Take `CCc1ccc(C(=O)NCC2(C(=O)NC(CC(=O)NCC(=O)NC)Cc3c[nH]c4ccccc34)CC2)cc1` (stereo not drawn) [Compound 3]: the IC50 at DNMT2 [2] worked out at 38.9 ± 6.9 µM. Besides, the “FTAD displacement in the MST assay” value on DNMT2 [3] (DEL hits, result in words) is reported as “quantitative FTAD displacement”. Besides, the Kd at DNMT2 [3] (FTAD probe 100 nM, 2 μM DNMT2, n.b. = no thermophoresis shift observable) was 48 µM and 48.2 µM; on DNMT2 [4], 5.3 µM and 5.31 µM; at DNMT2 [5], 8.4 ± 2.2 µM; at DNMT2Δ47 it was 102 µM. Besides, the “Fnorm (% displ.): FTAD displacement” value on DNMT2 [3] (ligand 100 μM, FTAD probe) is on record as 53%. In addition, the “Fnorm (MST screening)” value at DNMT2 [3] (ligand 100 μM, FTAD probe) turned out to be 912.1. Besides, the “Papp (PAMPA)” value in [6] is “failed to pass through the artificial membrane; also recorded: below detection limit”. The “thermal stabilization of DNMT2 (CETSA)” value on DNMT2 in MOLM-13 cells is “no thermal stabilization occurred”.
Take `Nc1ncn([C@@H]2O[C@H](CO)[C@@H](O)[C@H]2O)c(=O)n1` [azacitidine]: the 50% cytotoxic concentration (CC50) at 48 h in [7] was less than 10 µM.
